{"source": "patent US7531651B2", "about": "“Benzenesulphonate salt of a morpholine urea derivative for use as a CCR-3 antagonist in the treatment of inflammatory conditions” (Glaxo Group Limited, priority 2002, dated 2009)", "key": {"[1]": {"experiment": "Solid form storage stability tests (temperature/humidity/light)", "description": "The stability of the compound of the invention may be determined using conventional quantitative analytical methods: For example the stability of the compound in the solid form may be determined by using accelerated stability tests such as differential scanning calorimetry (DSC), thermogravimetric analysis (TGA) and isothermal testing at elevated temperatures including conventional storage tests wherein the test compound is stored under controlled conditions of temperature and humidity over known periods of time. Quantitative analysis of the test compounds, against appropriate reference standards before, during and after the storage period allows the stability of the test compound to be determined."}, "[2]": {"experiment": "Solubility in water versus free base"}, "[3]": {"experiment": "Stability in aqueous solution (impurity profiles)", "details": "presence and absence of light, 8 days, pH range 2-10", "description": "Thus a convenient method for determining the stability of the compounds of the invention in aqueous solution involves determining the impurity profiles of an aqueous solution of the test compound at known conditions of temperature and over known periods of time."}, "[4]": {"biological_target": "T1, CCR-3 (Homo sapiens, UniProt P51677)", "T1 construct": "expressed in transfected cells", "T1 sequence (P51677 1-355)": "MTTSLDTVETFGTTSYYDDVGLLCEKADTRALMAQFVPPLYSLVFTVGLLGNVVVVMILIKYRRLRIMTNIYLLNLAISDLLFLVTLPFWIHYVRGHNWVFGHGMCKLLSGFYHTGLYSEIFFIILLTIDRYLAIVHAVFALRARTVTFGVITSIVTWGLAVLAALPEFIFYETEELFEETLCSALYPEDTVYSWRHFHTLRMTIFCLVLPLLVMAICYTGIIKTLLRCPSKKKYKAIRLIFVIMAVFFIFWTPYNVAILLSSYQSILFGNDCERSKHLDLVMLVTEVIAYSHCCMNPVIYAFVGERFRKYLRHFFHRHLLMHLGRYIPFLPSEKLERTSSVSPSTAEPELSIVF", "experiment": "CCR-3 competition binding SPA ([125I]eotaxin)", "details": "membranes from K562 cells stably expressing CCR-3; 20 pM [125I]eotaxin; read-out: pIC50 (inhibition of [125I]eotaxin binding) (converted)", "protocol": "A CCR-3 competition binding SPA (scintillation proximity assay) was used to assess the affinity of novel compounds for CCR-3. Membranes prepared from K562 cells stably expressing CCR-3 (2.5 μg/well) were mixed with 0.25 mg/well wheat-germ agglutinin SPA beads (Amersham) and incubated in binding buffer (HEPES 50 mM, CaCl2 1 mM, MgCl2 5 mM, 0.5% BSA) at 4° C. for 1.5 hr. Following incubation, 20 pM of [^125I] eotaxin (Amersham) and increasing concentrations of compound (1 pM to 30 μM) were added and incubated in a 96 well plate for 2 hr at 22° C. then counted on a Microbeta plate counter. The total assay volume was 100 μl. Competition binding data were analysed by fitting the data with a four parameter logistic equation. Data are presented as the mean pIC50 values (negative logarithm of the concentration of compound which inhibits [^125I]eotaxin binding by 50%) from at least two experiments."}, "[5]": {"biological_target": "eosinophils", "experiment": "Eosinophil chemotaxis assay (eotaxin-induced)", "type": "cell-based", "details": "human peripheral blood eosinophils; agonist eotaxin at EC80", "procedure": "(b) Eosinophil Chemotaxis Assay.\nCompounds were evaluated for their inhibitory effect on eosinophil chemotaxis. Eosinophils were purified from human peripheral blood by standard CD16 cell depletion using a Miltenyi cell separation column and a magnetic Super Macs magnet as previously described (Motegi & Kita, 1998; J. Immunology. 161:4340-6). Cells were re-suspended in RPMI 1640/10% FCS solution and incubated with calcein-AM (Molecular Probes) at 37° C. for 30 mins. Following incubation, the eosinophils were centrifuged at 400 g for 5 min and re-suspended in RPMI/FCS at 2.2 million/ml. Cells were then incubated in the presence of increasing concentration of compounds (1 μM to 30 μM) at 37° C. for 30 mins. For control responses cells were incubated with RPMI/FCS only. The agonist eotaxin (either a concentration response curve or for the functional inhibition curves an EC80 concentration) was added to the lower chamber of a 96 well chemotaxis plate (5 μm filter: Receptor Technologies). […] Cells remaining on top of the chemotaxis filter were removed and the number of eosinophils which had migrated were quantified by reading the plate on a fluorescent plate reader. Inhibition curves for the effect of compounds on eosinophil chemotaxis were analysed by fitting the data with a four parameter logistic equation. […]"}, "[6]": {"experiment": "Hygroscopicity", "type": "physicochemical"}}, "data": [{"smiles": "NC(=O)c1ccc(CNC(=O)NC[C@H]2CN(Cc3ccc(Cl)c(Cl)c3)CCO2)cc1.O.O.O=S(=O)(O)c1ccccc1", "note": "[compound of the invention, 4-({[({[(2S)-4-(3,4-dichlorobenzyl)morpholin-2-yl]methyl}amino)carbonyl]amino}methyl)benzamide benzenesulfonate dihydrate]", "values": [{"measurement": "degradation on storage (solid form)", "setting": "[1]; 50° C./ambient conditions, 25 days", "value": "no significant degradation"}, {"measurement": "degradation on storage (solid form)", "setting": "[1]; light cabinet, ambient conditions, 14 days", "value": "no significant degradation"}, {"measurement": "solubility in water compared with the free base", "setting": "[2]", "value": "more soluble in water than the corresponding free base"}, {"measurement": "aqueous stability", "setting": "[3]", "value": "good aqueous stability"}, {"measurement": "IC50", "setting": "[4]", "value": "< 10", "unit": "µM"}, {"measurement": "fpKi (functional pKi)", "setting": "[5]", "value": "greater than 5"}, {"measurement": "hygroscopicity", "setting": "[6]", "value": "non-hygroscopic"}]}]}
